Key:
[1] = RAD001 PK analysis in blood of NALM6-luc tumor bearing mice; format: in vivo, NSG mice
Procedure: (§1) RAD001 dosing: A concentrated micro-emulsion of 50 mg equal to 1 mg RAD001 was formulated and then resuspended in D5W (dextrose 5% in water) at the time of dosing. Mice were orally dosed daily (via oral gavage) with 200 μl of the desired doses of RAD001.
PK analysis: Mice were dosed daily with RAD001 starting 7 days post tumor implantation. Dosing groups were as follows: 0.3 mg/kg, 1 mg/kg, 3 mg/kg, and 10 mg/kg. Mice were bled on days 0 and 14 following the first and last dose of RAD001, at the following time points for PK analysis: 15 minutes, 30 minutes, 1 hour, 2 hours, 4 hours, 8 hours, 12 hours, and 24 hours.

[2] = test system: huCAR19 CAR T cells; assay: huCAR19 CAR T cell expansion in vivo with RAD001 (FACS); design: species or system NSG mice; settings: lowest doses of RAD001, daily oral; more evident with CD4+ than CD8+ CAR T cells
Procedure: CAR T cell dosing: Mice were administered 5×10^6 CAR T cells 7 days after tumor implantation. Cells were partially thawed in a 37 degree Celsius water bath and then completely thawed by the addition of 1 ml of cold sterile PBS to the tube containing the cells. The thawed cells were transferred to a 15 ml falcon tube and adjusted to a final volume of 10 mls with PBS. The cells were washed twice at 1000 rpm for 10 minutes each time and then counted on a hemocytometer. T cells were then resuspended at a concentration of 50×10^6 CAR T cells per ml of cold PBS and kept on ice until the mice were dosed. The mice were injected intravenously via the tail vein with 100 μl of the CAR T cells for a dose of 5×10^6 CAR T cells per mouse. Eight mice per group were treated either with 100 μl of PBS alone (PBS), or humanized CD19 CAR T cells.
as §1
Based on these doses, huCAR19 CAR T cells were dosed with and without RAD001 to determine the proliferative ability of these cells. The highest dose used was 3 mg/kg based on the levels of RAD001 in the blood 24 hours after dosing. […] Mice were monitored via FACS for T cell expansion.

[3] = test system: humanized CD19 CART cells; assay: In vivo proliferation of humanized CD19 CART cells with and without RAD001 dosing; settings: RAD001 0.003 mg/kg daily, with huCAR19
Procedure: FIGS. 46A and 46B show in vivo proliferation of humanized CD19 CART cells with and without RAD001 dosing. […] Circles denote PBS; squares denote huCTL019; triangles denote huCTL019 with 3 mg/kg RAD001; inverted triangles denote huCTL019 with 0.3 mg/kg RAD001; diamonds denote huCTL019 with 0.03 mg/kg RAD001; and circles denote huCTL019 with 0.003 mg/kg RAD001.

[4] = test system: huCART19 cells co-cultured with Nalm-6; assay: huCART19 proliferation in 4 day co-culture with Nalm-6 in presence of RAD001; format: cell-based, human
From the text: A humanized, anti-human CD19 CAR (huCART19) lentiviral transfer vector was used to produce the genomic material packaged into VSVg pseudotyped lentiviral particles. The amino acid and nucleotide sequence of the humanized anti-human CD19 CAR (huCART19) is CAR 1, ID 104875 described in PCT publication, WO2014/153270, filed Mar. 15, 2014, and is designated SEQ ID NOs. 85 and 31 therein.
Lentiviral transfer vector DNA is mixed with the three packaging components VSVg env, gag/pol and rev in combination with lipofectamine reagent to transfect Lenti-X 293T cells. Medium is changed after 24h and 30h thereafter, the virus-containing media is collected, filtered and stored at −80° C. CARTs are generated by transduction of fresh or frozen naïve T cells obtained by negative magnetic selection of healthy donor blood or leukopak. […] The percentage of cells transduced (expressing the CARs on the cell surface) and the level of CAR expression (relative fluorescence intensity, Geo Mean) are determined by flow cytometric analysis between days 7 and 9. […]
To evaluate the functionality of CARTs, the T cells are thawed and counted, and viability is assessed by Cellometer. […]
For measuring the proliferation of CARTs, T cells are cultured with target cells at a ratio of 1:1. […] The number of T cells is assessed by flow cytometry using counting beads as reference.

[5] = test system: CAR-expressing, transduced T cells; assay: Proliferation of CARTs co-cultured with Nalm-6 cells in presence of RAD001; format: cell-based; settings: low doses of RAD001, 4 days of co-culture with Nalm-6 cells
Procedure: CARTs were co-cultured with Nalm-6 cells in the presence of different concentrations of RAD001. The number of CAR-positive CD3-positive T cells (black) and total T cells (gray) was assessed after 4 days of co-culture.

[6] = test system: NALM6-luc tumors; assay: NALM6-luc tumor growth under daily oral RAD001; format: in vivo, NSG mice; settings: daily oral dosing of RAD001 alone
Procedure: NALM6-luc cells: The NALM6 human acute lymphoblastic leukemia (ALL) cell line was developed from the peripheral blood of a patient with relapsed ALL. The cells were then tagged with firefly luciferase. These suspension cells grow in RPMI supplemented with 10% heat inactivated fetal bovine serum.
Mice: 6 week old NSG (NOD.Cg-Prkdc^scidIl2rg^tm1Wjl/SzJ) mice were received from the Jackson Laboratory (stock number 005557).
Tumor implantation: NALM6-luc cells were grown and expanded in vitro in RPMI supplemented with 10% heat inactivated fetal bovine serum. The cells were then transferred to a 15 ml conical tube and washed twice with cold sterile PBS. NALM6-luc cells were then counted and resuspended at a concentration of 10×10^6 cells per milliliter of PBS. The cells were placed on ice and immediately (within one hour) implanted in the mice. NALM6-luc cells were injected intravenously via the tail vein in a 100 µl volume, for a total of 1×10^6 cells per mouse.
as §1

CO[C@H]1C[C@@H]2CC[C@@H](C)[C@@](O)(O2)C(=O)C(=O)N2CCCC[C@H]2C(=O)O[C@H]([C@H](C)C[C@@H]2CC[C@@H](OCCO)[C@H](OC)C2)CC(=O)[C@H](C)/C=C(\C)[C@@H](O)[C@@H](OC)C(=O)[C@H](C)C[C@H](C)/C=C/C=C/C=C/1C [RAD001, (1R,9S,12S,15R,16E,18R,19R,21R,23 S,24E,26E,28E,30S,32S,35R)-1,18-dihydroxy-12-{(1R)-2-[(1S,3R,4R)-4-(2-hydroxyethoxy)-3-methoxycyclohexyl]-1-methylethyl}-19,30-dimethoxy-15,17,21,23,29,35-hexamethyl-11,36-dioxa-4-aza-tricyclo[30.3.1.04,9]hexatriaconta-16,24,26,28-tetraene-2,3,10,14,20-pentaone]
concentration at 24 h ([1]; NSG, mouse, whole blood, 24 hours after dosing, 0.3 mg/kg oral daily, day 0 and day 14, read-out: RAD001 concentrations in the blood): > 10 nM
stability in the blood ([1]; tumor bearing mice, FIGS. 45A, 45B): fairly stable
proliferation of the CAR T cells in vivo [2]: enhanced proliferation
CAR T cell proliferation in vivo [3]: enhancement in CAR T cell proliferation
huCART19 proliferation versus no RAD001 ([4]; 0.0032 and 0.016 nM RAD001): higher than observed without the addition of RAD001
RAD001 concentration at which huCART19 cells expanded ([4]; 4 day co-culture with Nalm-6, 1:1, lesser extent at higher concentrations): less than 0.016 nM
proliferation of CAR-expressing, transduced T cells [5]: enhanced
growth of NALM6-luc tumors [6]: did not have an impact

— US20220064316A1, “TREATMENT OF CANCER USING HUMANIZED ANTI-BCMA CHIMERIC ANTIGEN RECEPTOR” (The Trustees of the University of Pennsylvania, priority 2014, published 2022)
